Test results reported in patent US8030498B2, “Benzoylpyrazole compounds and herbicides containing them” (Ishihara Sangyo Kaisha, Ltd., priority 2005, dated 2011).

Columns and labels:
rice (Oryza sativa L.) = test: Test Example 1: foliar treatment, growth inhibition rate, rice; type: in vivo; details: visually observed 17th to 23rd day after application
Excerpt: (§1) Upland field soil was put into a 1/170,000 hectare pot, and seeds of various plants were sown. When the respective plants reached predetermined leaf stage ((1) barnyardgrass (Echinochloa crus-galli L.); 0.8 to 2.5 leaf stage, (2) crabgrass (Digitaria sanguinalis L.): 0.5 to 3.0 leaf stage, (3) greenfoxtail (Setaria viridis L.): 1.0 to 3.0 leaf stage, (4) redroot pigweed (Amaranthus retroflexus L.): cotyledon stage to 2.0 leaf stage, (5) prickly sida (Sida spinosa L.): cotyledon stage to 1.1 leaf stage, (6) velvetleaf (Abutilon theophrasti MEDIC.): cotyledon stage to 1.5 leaf stage, (7) rice (Oryza sativa L.): 1.0 to 2.5 leaf stage, (8) wheat (Triticum spp.): 1.7 to 3.4 leaf stage, (9) corn (Zea mays L.): 2.0 to 3.5 leaf stage, and (10) soybean (Glycine max Merr.): primary leaf stage to 0.3 leaf stage), wettable powders or emulsifiable concentrates of the compounds of the present invention prepared in accordance with a conventional preparation method, were weighed so that the active ingredients became the prescribed amounts, and diluted with water in an amount corresponding to 500 liter per 1 hectare. 0.1 vol % of an agricultural spreader was further added to the respective diluted liquids, followed by foliar treatment with a small sprayer.
(§2) On the 17th to 23rd day after application, the state of growth of the respective plants was visually observed, and the herbicidal effect was evaluated in accordance with a growth inhibition rate (%) of 0 (equivalent to the non-treated area) to 100% (complete kill).

[1] = test system: redroot pigweed (Amaranthus retroflexus L.); test: Test Example 1: foliar treatment, growth inhibition rate, redroot pigweed; type: in vivo; details: visually observed 17th to 23rd day after application
Excerpt: as §1, §2

[2] = test system: greenfoxtail (Setaria viridis L.); test: Test Example 1: foliar treatment, growth inhibition rate, greenfoxtail; type: in vivo; details: visually observed 17th to 23rd day after application
Excerpt: as §1, §2

velvetleaf = test: Test Example 2: soil application on the day after sowing, growth inhibition rate, velvetleaf; type: in vivo, Abutilon theophrasti MEDIC.; details: 250 g/ha active ingredient, observed on 19th to 24th day
Excerpt: (§3) Upland field soil was put into a 1/170,000 hectare pot, and seeds of various plants (barnyardgrass, crabgrass, greenfoxtail, redroot pigweed, prickly sida, velvetleaf, rice, wheat, corn and soybean) were sown. On the day after sowing, wettable powders or emulsifiable concentrates of the compounds of the present invention prepared in accordance with a conventional preparation method, were weighed so that the active ingredients became the prescribed amounts, and diluted with water in an amount corresponding to 500 liter per 1 hectare, followed by soil application with a small sprayer. On the 19th to 24th day after the application, the state of growth of the respective plants was visually observed, and the herbicidal effect was evaluated in accordance with a growth inhibition rate (%) of from 0 (equivalent to the non-treated area) to 100% (complete kill).

corn = test: Test Example 2: soil application on the day after sowing, growth inhibition rate, corn; type: in vivo, Zea mays L.; details: 250 g/ha active ingredient, observed on 19th to 24th day
Excerpt: as §3

[3] = test system: prickly sida (Sida spinosa L.); test: Test Example 1: foliar treatment, growth inhibition rate, prickly sida; type: in vivo; details: visually observed 17th to 23rd day after application
Excerpt: as §1, §2

[4] = test system: barnyardgrass (Echinochloa crus-galli L.); test: Test Example 1: foliar treatment, growth inhibition rate, barnyardgrass; type: in vivo; details: visually observed 17th to 23rd day after application
Excerpt: as §1, §2

wheat (Triticum spp.) = test: Test Example 1: foliar treatment, growth inhibition rate, wheat; type: in vivo; details: visually observed 17th to 23rd day after application
Excerpt: as §1, §2

crabgrass = test: Test Example 2: soil application on the day after sowing, growth inhibition rate, crabgrass; type: in vivo, Digitaria sanguinalis L.; details: 250 g/ha active ingredient, observed on 19th to 24th day
Excerpt: as §3

corn (Zea mays L.) = test: Test Example 1: foliar treatment, growth inhibition rate, corn; type: in vivo; details: visually observed 17th to 23rd day after application
Excerpt: as §1, §2

[5] = test system: soybean (Glycine max Merr.); test: Test Example 1: foliar treatment, growth inhibition rate, soybean; type: in vivo; details: visually observed 17th to 23rd day after application
Excerpt: as §1, §2

[6] = test system: crabgrass (Digitaria sanguinalis L.); test: Test Example 1: foliar treatment, growth inhibition rate, crabgrass; type: in vivo; details: visually observed 17th to 23rd day after application
Excerpt: as §1, §2

[7] = test system: velvetleaf (Abutilon theophrasti MEDIC.); test: Test Example 1: foliar treatment, growth inhibition rate, velvetleaf; type: in vivo; details: visually observed 17th to 23rd day after application
Excerpt: as §1, §2

redroot pigweed = test: Test Example 2: soil application on the day after sowing, growth inhibition rate, redroot pigweed; type: in vivo, Amaranthus retroflexus L.; details: 250 g/ha active ingredient, observed on 19th to 24th day
Excerpt: as §3

CCSC(=O)Oc1c(C(=O)c2ccc(S(C)(=O)=O)c(COC)c2Cl)cnn1C [compound 42]
Growth inhibition rate (%) Rice (rice (Oryza sativa L.); 31 g/ha active ingredient): 90%
Growth inhibition rate (%) redroot pigweed ([1]; 31 g/ha active ingredient): 100%
Growth inhibition rate (%) Greenfoxtail ([2]; 31 g/ha active ingredient): 95%
Growth inhibition rate (%) Velvetleaf (velvetleaf): 70%
Growth inhibition rate (%) Corn (corn): 0%
Growth inhibition rate (%) Prickly sida ([3]; 31 g/ha active ingredient): 90%
Growth inhibition rate (%) Barnyardgrass ([4]; 31 g/ha active ingredient): 100%
Growth inhibition rate (%) Wheat (wheat (Triticum spp.); 31 g/ha active ingredient): 0%
Growth inhibition rate (%) Crabgrass (crabgrass): 100%
Growth inhibition rate (%) Corn (corn (Zea mays L.); 31 g/ha active ingredient): 0%
Growth inhibition rate (%) Soybean ([5]; 31 g/ha active ingredient): 95%
Growth inhibition rate (%) Crabgrass ([6]; 31 g/ha active ingredient): 98%
Growth inhibition rate (%) Velvetleaf ([7]; 31 g/ha active ingredient): 95%
Growth inhibition rate (%) redroot pigweed (redroot pigweed): 100%

CCSC(=O)Oc1c(C(=O)c2ccc(S(C)(=O)=O)c(Cl)c2C)cnn1CC [compound 71]
Growth inhibition rate (%) Rice (rice (Oryza sativa L.); 31 g/ha active ingredient): 60%
Growth inhibition rate (%) redroot pigweed ([1]; 31 g/ha active ingredient): 70%
Growth inhibition rate (%) Greenfoxtail ([2]; 31 g/ha active ingredient): 60%
Growth inhibition rate (%) Prickly sida ([3]; 31 g/ha active ingredient): 60%
Growth inhibition rate (%) Barnyardgrass ([4]; 31 g/ha active ingredient): 70%
Growth inhibition rate (%) Wheat (wheat (Triticum spp.); 31 g/ha active ingredient): 10%
Growth inhibition rate (%) Corn (corn (Zea mays L.); 31 g/ha active ingredient): 0%
Growth inhibition rate (%) Soybean ([5]; 31 g/ha active ingredient): 60%
Growth inhibition rate (%) Crabgrass ([6]; 31 g/ha active ingredient): 40%
Growth inhibition rate (%) Velvetleaf ([7]; 31 g/ha active ingredient): 60%

CCSC(=O)Oc1c(C(=O)c2ccc(S(C)(=O)=O)c(CS(C)(=O)=O)c2C)cnn1C [compound 72]
Growth inhibition rate (%) Rice (rice (Oryza sativa L.); 31 g/ha active ingredient): 50%
Growth inhibition rate (%) redroot pigweed ([1]; 31 g/ha active ingredient): 60%
Growth inhibition rate (%) Greenfoxtail ([2]; 31 g/ha active ingredient): 70%
Growth inhibition rate (%) Velvetleaf (velvetleaf): 30%
Growth inhibition rate (%) Corn (corn): 0%
Growth inhibition rate (%) Prickly sida ([3]; 31 g/ha active ingredient): 60%
Growth inhibition rate (%) Barnyardgrass ([4]; 31 g/ha active ingredient): 80%
Growth inhibition rate (%) Wheat (wheat (Triticum spp.); 31 g/ha active ingredient): 0%
Growth inhibition rate (%) Crabgrass (crabgrass): 0%
Growth inhibition rate (%) Corn (corn (Zea mays L.); 31 g/ha active ingredient): 10%
Growth inhibition rate (%) Soybean ([5]; 31 g/ha active ingredient): 70%
Growth inhibition rate (%) Crabgrass ([6]; 31 g/ha active ingredient): 50%
Growth inhibition rate (%) Velvetleaf ([7]; 31 g/ha active ingredient): 60%
Growth inhibition rate (%) redroot pigweed (redroot pigweed): 50%

CCOCc1c(S(C)(=O)=O)ccc(C(=O)c2cnn(C)c2OC(=O)SCC)c1C [compound 73]
Growth inhibition rate (%) Rice (rice (Oryza sativa L.); 31 g/ha active ingredient): 95%
Growth inhibition rate (%) redroot pigweed ([1]; 31 g/ha active ingredient): 100%
Growth inhibition rate (%) Greenfoxtail ([2]; 31 g/ha active ingredient): 100%
Growth inhibition rate (%) Velvetleaf (velvetleaf): 100%
Growth inhibition rate (%) Corn (corn): 0%
Growth inhibition rate (%) Prickly sida ([3]; 31 g/ha active ingredient): 70%
Growth inhibition rate (%) Barnyardgrass ([4]; 31 g/ha active ingredient): 100%
Growth inhibition rate (%) Wheat (wheat (Triticum spp.); 31 g/ha active ingredient): 0%
Growth inhibition rate (%) Crabgrass (crabgrass): 100%
Growth inhibition rate (%) Corn (corn (Zea mays L.); 31 g/ha active ingredient): 30%
Growth inhibition rate (%) Soybean ([5]; 31 g/ha active ingredient): 98%
Growth inhibition rate (%) Crabgrass ([6]; 31 g/ha active ingredient): 100%
Growth inhibition rate (%) Velvetleaf ([7]; 31 g/ha active ingredient): 98%
Growth inhibition rate (%) redroot pigweed (redroot pigweed): 100%

C=C(C)CSC(=O)Oc1c(C(=O)c2ccc(S(C)(=O)=O)c(C(=O)OC)c2C)cnn1CC [compound 101]
Growth inhibition rate (%) Rice (rice (Oryza sativa L.); 31 g/ha active ingredient): 98%
Growth inhibition rate (%) redroot pigweed ([1]; 31 g/ha active ingredient): 100%
Growth inhibition rate (%) Greenfoxtail ([2]; 31 g/ha active ingredient): 100%
Growth inhibition rate (%) Prickly sida ([3]; 31 g/ha active ingredient): 70%
Growth inhibition rate (%) Barnyardgrass ([4]; 31 g/ha active ingredient): 100%
Growth inhibition rate (%) Wheat (wheat (Triticum spp.); 31 g/ha active ingredient): 10%
Growth inhibition rate (%) Corn (corn (Zea mays L.); 31 g/ha active ingredient): 30%
Growth inhibition rate (%) Soybean ([5]; 31 g/ha active ingredient): 90%
Growth inhibition rate (%) Crabgrass ([6]; 31 g/ha active ingredient): 100%
Growth inhibition rate (%) Velvetleaf ([7]; 31 g/ha active ingredient): 98%

CCSC(=O)Oc1c(C(=O)c2ccc(S(C)(=O)=O)c(CCCOC)c2C)cnn1C [compound 226]
Growth inhibition rate (%) Rice (rice (Oryza sativa L.); 31 g/ha active ingredient): 100%
Growth inhibition rate (%) redroot pigweed ([1]; 31 g/ha active ingredient): 95%
Growth inhibition rate (%) Greenfoxtail ([2]; 31 g/ha active ingredient): 95%
Growth inhibition rate (%) Prickly sida ([3]; 31 g/ha active ingredient): 70%
Growth inhibition rate (%) Barnyardgrass ([4]; 31 g/ha active ingredient): 100%
Growth inhibition rate (%) Wheat (wheat (Triticum spp.); 31 g/ha active ingredient): 0%
Growth inhibition rate (%) Corn (corn (Zea mays L.); 31 g/ha active ingredient): 0%
Growth inhibition rate (%) Soybean ([5]; 31 g/ha active ingredient): 100%
Growth inhibition rate (%) Crabgrass ([6]; 31 g/ha active ingredient): 95%
Growth inhibition rate (%) Velvetleaf ([7]; 31 g/ha active ingredient): 80%

CCSC(=O)Oc1c(C(=O)c2ccc(S(C)(=O)=O)c(OCC3OCCO3)c2Cl)cnn1CC [compound 227]
Growth inhibition rate (%) Rice (rice (Oryza sativa L.); 63 g/ha active ingredient): 30%
Growth inhibition rate (%) redroot pigweed ([1]; 63 g/ha active ingredient): 100%
Growth inhibition rate (%) Greenfoxtail ([2]; 63 g/ha active ingredient): 100%
Growth inhibition rate (%) Prickly sida ([3]; 63 g/ha active ingredient): 60%
Growth inhibition rate (%) Barnyardgrass ([4]; 63 g/ha active ingredient): 100%
Growth inhibition rate (%) Wheat (wheat (Triticum spp.); 63 g/ha active ingredient): 0%
Growth inhibition rate (%) Corn (corn (Zea mays L.); 63 g/ha active ingredient): 0%
Growth inhibition rate (%) Soybean ([5]; 63 g/ha active ingredient): 95%
Growth inhibition rate (%) Crabgrass ([6]; 63 g/ha active ingredient): 100%
Growth inhibition rate (%) Velvetleaf ([7]; 63 g/ha active ingredient): 100%
